Test results as given in patent publication US9556201B2, “Bicyclic pyridines and analogs as sirtuin modulators” (GLAXOSMITHKLINE LLC, priority 2009, dated 2017).

Target: T1, SIRT1 (Homo sapiens, UniProt Q96EB6)
T1 sequence (Q96EB6 1-747): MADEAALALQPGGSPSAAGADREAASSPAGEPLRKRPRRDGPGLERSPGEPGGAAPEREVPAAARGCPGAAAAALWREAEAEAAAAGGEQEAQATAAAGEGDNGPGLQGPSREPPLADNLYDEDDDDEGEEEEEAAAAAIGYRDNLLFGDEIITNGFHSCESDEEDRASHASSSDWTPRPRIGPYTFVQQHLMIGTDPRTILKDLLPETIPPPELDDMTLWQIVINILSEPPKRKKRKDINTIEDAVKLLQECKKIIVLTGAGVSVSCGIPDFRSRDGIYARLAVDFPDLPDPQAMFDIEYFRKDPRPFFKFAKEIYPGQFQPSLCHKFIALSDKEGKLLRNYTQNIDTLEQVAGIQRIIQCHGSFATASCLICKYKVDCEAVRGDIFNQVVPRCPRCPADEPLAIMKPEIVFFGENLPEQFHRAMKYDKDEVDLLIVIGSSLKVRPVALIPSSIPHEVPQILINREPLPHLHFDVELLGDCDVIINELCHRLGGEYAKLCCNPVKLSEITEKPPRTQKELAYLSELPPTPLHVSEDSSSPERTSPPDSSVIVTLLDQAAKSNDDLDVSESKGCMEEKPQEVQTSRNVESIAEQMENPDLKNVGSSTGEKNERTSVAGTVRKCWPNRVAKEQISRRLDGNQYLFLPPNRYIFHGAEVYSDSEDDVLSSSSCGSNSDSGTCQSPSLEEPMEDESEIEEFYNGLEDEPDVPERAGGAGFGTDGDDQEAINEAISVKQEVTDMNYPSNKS
Test: Mass spectrometry based assay to identify modulators of SIRT1 activity (deacetylation of p53-based acetylated peptide substrate)
Assay type: biochemical
Conditions: SIRT1 activation; for Emax: 25 min, read-out: % FOLD ACT. (percent maximum fold activation)
Source text: A mass spectrometry based assay was used to identify modulators of SIRT1 activity. The mass spectrometry based assay utilizes a peptide having 20 amino acid residues as follows: Ac-EE-K(biotin)-GQSTSSHSK(Ac)NleSTEG-K(5TMR)-EE-NH2 (SEQ ID NO: 1) wherein K(Ac) is an acetylated lysine residue and Nle is a norleucine. The peptide is labeled with the fluorophore 5TMR (excitation 540 nm/emission 580 nm) at the C-terminus. The sequence of the peptide substrate is based on p53 with several modifications. In addition, the methionine residue naturally present in the sequence was replaced with the norleucine because the methionine may be susceptible to oxidation during synthesis and purification.
The mass spectrometry assay is conducted as follows: […] peptide substrate and 120 μM βNAD^+ is incubated with 10 nM SIRT1 for 25 minutes at 25° C. in a reaction buffer (50 mM Tris-acetate pH 8, 137 mM NaCl, 2.7 mM KCl, 1 mM MgCl2, 5 mM DTT, 0.05% BSA). Test compounds may be added to the reaction as described above. The SirT1 gene is cloned into a T7-promoter containing vector and transformed into BL21(DE3). After the 25 minute incubation with SIRT1, 10 μL of 10% formic acid is added to stop the reaction. Reactions are sealed and frozen for later mass spec analysis. Determination of the mass of the substrate peptide allows for precise determination of the degree of acetylation (i.e. starting material) as compared to deacetylated peptide (product).
A control for inhibition of sirtuin activity is conducted by adding 1 μL of 500 mM nicotinamide as a negative control at the start of the reaction (e.g., permits determination of maximum sirtuin inhibition). A control for activation of sirtuin activity is conducted using 10 nM of sirtuin protein, with 1 μL of DMSO in place of compound, to determine the amount of deacetylation of the substrate at a given timepoint within the linear range of the assay. This timepoint is the same as that used for test compounds and, within the linear range, the endpoint represents a change in velocity.
For the above assay, SIRT1 protein was expressed and purified as follows. The SirT1 gene was cloned into a T7-promoter containing vector and transformed into BL21(DE3). The protein was expressed by induction with 1 mM IPTG as an N-terminal His-tag fusion protein at 18° C. overnight and harvested at 30,000×g. Cells were lysed with lysozyme in lysis buffer (50 mM Tris-HCl, 2 mM Tris[2-carboxyethyl]phosphine (TCEP), 10 μM ZnCl2, 200 mM NaCl) and further treated with sonication for 10 min for complete lysis. The protein was purified over a Ni-NTA column (Amersham) and fractions containing pure protein were pooled, concentrated and run over a sizing column (Sephadex S200 26/60 global). The peak containing soluble protein was collected and run on an Ion-exchange column (MonoQ). Gradient elution (200 mM-500 mM NaCl) yielded pure protein. This protein was concentrated and dialyzed against dialysis buffer (20 mM Tris-HCl, 2 mM TCEP) overnight. The protein was aliquoted and frozen at −80° C. until further use.

| Emax | EC1.5 | SMILES |
| --- | --- | --- |
| > 200% | B (EC1.5 1-25 μM) | CC1(C)CN(C(=O)Nc2ccncc2)c2nc(-c3cccc(F)c3)ccc2O1 [Compound 561] |
| ≤ 200% | C (EC1.5>25 μM) | Cc1cccnc1NC(=O)N1CCOc2ccc(-c3cccc(C(F)(F)F)c3)nc21 [Compound 569] |
| > 200% | B (EC1.5 1-25 μM) | Cc1cc(NC(=O)N2CCOc3ccc(-c4c(C)noc4C)nc32)cc(C)n1 [Compound 573] |
| > 200% | B (EC1.5 1-25 μM) | Cc1cncc(NC(=O)N2CCCOc3ccc(-c4cccc(C(F)(F)F)c4)nc32)c1 [Compound 576] |
| > 200% | B (EC1.5 1-25 μM) | Cc1cncc(NC(=O)N2CCCOc3ccc(-c4cccc(F)c4)nc32)c1 [Compound 581] |
| > 200% | B (EC1.5 1-25 μM) | Cc1cc(NC(=O)N2CCCOc3ccc(-c4cccc(F)c4)nc32)ccn1 [Compound 582] |
| > 200% | B (EC1.5 1-25 μM) | O=C(Nc1ccnc(N2CCC2)c1)N1CCCOc2ccc(-c3cccc(F)c3)nc21 [Compound 584] |
| > 200% | A (EC1.5<1.0 μM) | CC1(C)CN(C(=O)Nc2cncc(F)c2)c2nc(-c3cccc(Cl)c3)ccc2O1 [Compound 601] |
| > 200% | B (EC1.5 1-25 μM) | CC1(C)CN(C(=O)Nc2cncc(F)c2)c2nc(-c3cccc(F)c3)ccc2O1 [Compound 621] |
| > 200% | A (EC1.5<1.0 μM) | O=C(Nc1ccncn1)N1CCCOc2ccc(-c3cccc(Cl)c3)nc21 [Compound 625] |
| ≤ 200% | B (EC1.5 1-25 μM) | Cc1csc(NC(=O)N2CCCOc3ccc(-c4cccc(N5CCCC5)c4)nc32)n1 [Compound 628] |
| > 200% | B (EC1.5 1-25 μM) | Cc1cncc(NC(=O)N2CC(C)(C)Oc3ccc(-c4cccc(CN5CCCC5)c4)nc32)c1 [Compound 629, 2,2-dimethyl-N-(5-methylpyridin-3-yl)-6-(3-(pyrrolidin-1-ylmethyl)phenyl)-2H-pyrido[3,2-b][1,4]oxazine-4(3H)-carboxamide] |
| > 200% | B (EC1.5 1-25 μM) | CC1(C)CN(C(=O)Nc2cccnc2)c2nc(-c3cccc(CN4CCCC4)c3)ccc2O1 [Compound 630] |
| ≤ 200% | C (EC1.5>25 μM) | CC1(C)CC(NC(=O)N2CCOc3ccc(-c4cccc(C(F)(F)F)c4)nc32)CC(C)(C)N1 [Compound 634] |
| ≤ 200% | C (EC1.5>25 μM) | Cc1ccc(-c2ccc3c(n2)N(C(=O)Nc2ccnc(C)c2)CCCO3)cn1 [Compound 635] |
| ≤ 200% | C (EC1.5>25 μM) | Cc1cncc(NC(=O)N2CCCOc3ccc(-c4ccc(C)nc4)nc32)c1 [Compound 636] |
| > 200% | B (EC1.5 1-25 μM) | Cc1ccc(-c2ccc3c(n2)N(C(=O)Nc2cc(C)nc(C)c2)CCCO3)cn1 [Compound 637] |
| > 200% | B (EC1.5 1-25 μM) | Cc1cc(OCC(O)CO)nc(NC(=O)N2CCCc3ccc(-c4cccc(C(F)(F)F)c4)nc32)n1 (stereo not shown) [Compound 640] |
| > 200% | B (EC1.5 1-25 μM) | O=C(Nc1ncccn1)N1CCCOc2ccc(-c3cccc(C(F)(F)F)c3)nc21 [Compound 643] |

The next lines start with the compound.

| SMILES | Emax | EC1.5 |
| --- | --- | --- |
| O=C(Nc1ccncc1)N1CCCOc2ccc(-c3cccc(C(F)(F)F)c3)nc21 [Compound 558, N-(pyridin-4-yl)-7-(3-(trifluoromethyl)phenyl)-3,4-dihydropyrido[3,2-b][1,4]oxazepine-5(2H)-carboxamide] | > 200% | B (EC1.5 1-25 μM) |
| O=C(Oc1cccnc1)N1CCOc2ccc(-c3cccc(C(F)(F)F)c3)nc21 [Compound 562] | ≤ 200% | C (EC1.5>25 μM) |
| CN1C(=O)CN(C(=O)Nc2cccc(N3CCOCC3)n2)c2nc(-c3cccc(C(F)(F)F)c3)ccc21 [Compound 563] | > 200% | A (EC1.5<1.0 μM) |
| Cc1cnccc1NC(=O)N1CCOc2ccc(-c3cccc(C(F)(F)F)c3)nc21 [Compound 564] | ≤ 200% | B (EC1.5 1-25 μM) |
| O=C(Nc1cc(C(F)(F)F)ccn1)N1CCOc2ccc(-c3cccc(C(F)(F)F)c3)nc21 [Compound 565] | ≤ 200% | B (EC1.5 1-25 μM) |
| O=C(Nc1ncc(F)cc1F)N1CCOc2ccc(-c3cccc(C(F)(F)F)c3)nc21 [Compound 567] | > 200% | B (EC1.5 1-25 μM) |
| O=C(Nc1ncccc1F)N1CCOc2ccc(-c3cccc(C(F)(F)F)c3)nc21 [Compound 568] | > 200% | B (EC1.5 1-25 μM) |
| Cc1cc(NC(=O)N2CCOc3ccc(-c4cnn(C)c4C)nc32)cc(C)n1 [Compound 572] | > 200% | B (EC1.5 1-25 μM) |
| Cc1cc(NC(=O)N2CCOc3ccc(-c4ccnn4C)nc32)cc(C)n1 [Compound 575] | > 200% | B (EC1.5 1-25 μM) |
| Cc1cc(NC(=O)N2CCCOc3ccc(-c4cccc(C(F)(F)F)c4)nc32)ccn1 [Compound 577] | > 200% | B (EC1.5 1-25 μM) |
| O=C(Nc1ccnc(N2CCC2)c1)N1CCCOc2ccc(-c3cccc(C(F)(F)F)c3)nc21 [Compound 579] | > 200% | A (EC1.5<1.0 μM) |
| O=C(Nc1ccncn1)N1CCCOc2ccc(-c3cccc(F)c3)nc21 [Compound 580] | > 200% | B (EC1.5 1-25 μM) |
| Cc1csc(NC(=O)N2CCCOc3ccc(-c4cccc(F)c4)nc32)n1 [Compound 583] | > 200% | B (EC1.5 1-25 μM) |
| Cc1cncc(NC(=O)N2CCCOc3ccc(-c4cccc(N5CCCC5)c4)nc32)c1 [Compound 610] | > 200% | B (EC1.5 1-25 μM) |
| O=C(Nc1ccncn1)N1CCCOc2ccc(-c3cccc(N4CCCC4)c3)nc21 [Compound 627] | > 200% | B (EC1.5 1-25 μM) |
| Cc1cc(NC(=O)N2CCOc3ccc(-c4cc(C)nn4C)nc32)cc(C)n1 [Compound 632] | > 200% | B (EC1.5 1-25 μM) |
| O=C(NC1(c2ccccn2)CC1)N1CCOc2ccc(-c3cccc(C(F)(F)F)c3)nc21 [Compound 633, N-(1-(pyridin-2-yl)cyclopropyl)-6-(3-(trifluoromethyl)phenyl)-2H-pyrido[3,2-b][1,4]oxazine-4(3H)-carboxamide] | ≤ 200% | C (EC1.5>25 μM) |
| O=C(Oc1cccc(OCC(O)CO)c1)N1CCCc2ccc(-c3cccc(C(F)(F)F)c3)nc21 (stereo not shown) [Compound 641, 3-(2,3-dihydroxypropoxy)phenyl 7-(3-(trifluoromethyl)phenyl)-3,4-dihydro-1,8-naphthyridine-1(2H)-carboxylate] | ≤ 200% | B (EC1.5 1-25 μM) |
| O=C(c1cccc(OCC(O)CO)c1)N1CCCc2ccc(-c3cccc(C(F)(F)F)c3)nc21 (stereo not shown) [Compound 642, (3-(2,3-dihydroxypropoxy)phenyl)(7-(3-(trifluoromethyl)phenyl)-3,4-dihydro-1,8-naphthyridin-1(2H)-yl)methanone] | ≤ 200% | C (EC1.5>25 μM) |
